The values below come from patent US8198273B2, “Compounds and methods for kinase modulation, and indications therefor” (Plexxikon Inc., priority 2009, dated 2012).

Broadly, the pIC50 is −log10 of the IC50, conventionally taken in molar units.

pIC50: −log10 of the molar value.

One data set concerns the target B-Raf (Homo sapiens, UniProt P15056). The experiment in a line: B-Raf biochemical kinase inhibition (AlphaScreen, biotin-MEK1 substrate). As to conditions: 100 μM ATP. The method in brief: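 Raf kinases phosphorylating biotin-MEK1, reaction started with ATP at 100 μM final. Compounds tested at 8 points by serial dilution from a 0.1 mM DMSO stock.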
The test system of data set [1] is COLO205 colon adenocarcinoma cells (B-Raf V600E). The experiment in a line: COLO205 cell growth inhibition (ATPlite). Format: cell-based. Conditions: Homo sapiens, COLO 205, 72 h; COLO205, 3 days incubation. The method in brief: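 Cells plated overnight, then exposed 3 days at 37° C to 8-point 1:3 compound dilutions topping at 10 μM final. Viability read as ATPlite luminescence, proportional to cell number; IC50 from luminescence versus concentration.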

A further data set addresses T1, CYP1A2 (Homo sapiens, UniProt P05177).
T1 sequence (P05177 1-516): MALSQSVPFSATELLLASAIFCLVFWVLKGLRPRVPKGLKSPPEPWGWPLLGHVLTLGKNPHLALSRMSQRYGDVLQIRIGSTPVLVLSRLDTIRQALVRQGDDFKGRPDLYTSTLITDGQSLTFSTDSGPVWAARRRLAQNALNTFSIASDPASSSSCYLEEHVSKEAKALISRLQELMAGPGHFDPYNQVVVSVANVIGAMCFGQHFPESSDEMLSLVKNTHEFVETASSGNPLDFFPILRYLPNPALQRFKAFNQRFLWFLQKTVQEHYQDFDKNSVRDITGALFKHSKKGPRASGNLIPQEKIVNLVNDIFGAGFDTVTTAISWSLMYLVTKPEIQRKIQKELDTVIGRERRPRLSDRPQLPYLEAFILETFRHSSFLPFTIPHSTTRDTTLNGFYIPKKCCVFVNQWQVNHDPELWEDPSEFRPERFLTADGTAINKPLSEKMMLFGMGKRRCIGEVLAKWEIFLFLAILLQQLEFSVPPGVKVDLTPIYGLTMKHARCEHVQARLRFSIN
Description: CYP1A2 inhibition (fluorescent substrate). It counts as in vitro ADME. As to conditions: CYP1A2, CEC substrate; read-out: Cyp IC50 1A2. The method in brief:
(§1)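 Human CYP activity was followed by the fluorescence of the metabolized product of a known substrate, which falls as metabolism is inhibited. Compounds from 100 mM DMSO stocks were serially diluted 1:1 over 10 points in co-factor mix and preincubated 10 min at 37 °C. IC50 was fitted from signal versus concentration.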

A further data set concerns the target CYP2D6 (Homo sapiens, UniProt P10635). The experiment in a line: CYP2D6 inhibition (fluorescent substrate). It counts as in vitro ADME. Conditions: CYP2D6, AMMC substrate; read-out: Cyp IC50 2D6. The method in brief: as §1

B-Raf, sequence (P15056 whole entry): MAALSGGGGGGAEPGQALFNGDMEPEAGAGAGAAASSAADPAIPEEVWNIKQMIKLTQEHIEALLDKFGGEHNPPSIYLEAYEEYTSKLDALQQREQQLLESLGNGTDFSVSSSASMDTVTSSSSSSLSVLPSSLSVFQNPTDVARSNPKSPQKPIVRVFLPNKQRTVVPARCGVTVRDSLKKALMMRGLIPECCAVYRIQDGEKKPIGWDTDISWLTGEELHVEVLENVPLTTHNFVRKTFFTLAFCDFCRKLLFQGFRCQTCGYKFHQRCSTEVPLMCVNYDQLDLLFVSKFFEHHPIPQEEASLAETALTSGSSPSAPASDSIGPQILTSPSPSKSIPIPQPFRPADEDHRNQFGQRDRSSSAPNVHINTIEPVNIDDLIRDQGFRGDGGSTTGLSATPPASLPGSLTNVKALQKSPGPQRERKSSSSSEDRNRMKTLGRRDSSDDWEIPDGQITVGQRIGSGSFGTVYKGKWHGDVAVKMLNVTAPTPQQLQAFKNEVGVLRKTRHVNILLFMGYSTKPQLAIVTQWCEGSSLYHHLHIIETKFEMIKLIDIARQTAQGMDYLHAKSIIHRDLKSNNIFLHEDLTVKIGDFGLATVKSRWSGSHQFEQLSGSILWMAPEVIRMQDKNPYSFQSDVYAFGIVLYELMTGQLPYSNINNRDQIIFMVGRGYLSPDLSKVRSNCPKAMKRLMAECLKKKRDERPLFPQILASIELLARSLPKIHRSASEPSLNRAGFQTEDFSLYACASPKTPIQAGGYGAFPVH
CYP2D6, sequence (P10635 whole entry): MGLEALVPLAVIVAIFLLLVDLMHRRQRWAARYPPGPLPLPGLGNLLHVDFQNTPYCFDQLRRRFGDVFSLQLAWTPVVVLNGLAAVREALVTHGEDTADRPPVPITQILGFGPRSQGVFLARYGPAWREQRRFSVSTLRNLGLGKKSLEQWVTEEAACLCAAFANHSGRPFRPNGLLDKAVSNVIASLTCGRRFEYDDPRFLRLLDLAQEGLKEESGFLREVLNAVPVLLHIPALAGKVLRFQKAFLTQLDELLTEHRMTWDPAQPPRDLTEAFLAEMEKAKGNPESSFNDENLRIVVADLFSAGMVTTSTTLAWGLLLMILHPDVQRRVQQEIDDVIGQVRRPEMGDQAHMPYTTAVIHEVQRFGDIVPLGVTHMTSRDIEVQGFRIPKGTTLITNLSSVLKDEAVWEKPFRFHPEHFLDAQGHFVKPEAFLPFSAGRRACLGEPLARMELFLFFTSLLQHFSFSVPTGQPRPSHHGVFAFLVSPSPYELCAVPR

For `CCCS(=O)(=O)Nc1ccc(F)c(C(=O)c2c[nH]c3ncc(-c4ccc(OCCN5CCCC5)nc4)cc23)c1F` [P-2233, Propane-1-sulfonic acid (2,4-difluoro-3-{5-[6-(2-pyrrolidin-1-yl-ethoxy)-pyridin-3-yl]-1H-pyrrolo[2,3-b]pyridine-3-carbonyl}-phenyl)-amide], the pIC50 was over 8.00 at B-Raf, over 7.00 in data set [1], under 5.00 at CYP1A2 and under 5.00 on CYP2D6.
Turning to `CCCS(=O)(=O)Nc1ccc(F)c(C(=O)c2c[nH]c3ncc(-c4ccc(OCCCN5CCCC5)nc4)cc23)c1F` [P-2235, Propane-1-sulfonic acid (2,4-difluoro-3-{5-[6-(3-pyrrolidin-1-yl-propoxy)-pyridin-3-yl]-1H-pyrrolo[2,3-b]pyridine-3-carbonyl}-phenyl)-amide], the pIC50 is over 8.00 against B-Raf, over 7.00 in data set [1], under 5.00 on CYP1A2 and under 5.00 on CYP2D6.
With `CCCS(=O)(=O)Nc1ccc(F)c(C(=O)c2c[nH]c3ncc(-c4ccc(OCCCN5CCOCC5)nc4)cc23)c1F` [P-2236, Propane-1-sulfonic acid (2,4-difluoro-3-{5-[6-(3-morpholin-4-yl-propoxy)-pyridin-3-yl]-1H-pyrrolo[2,3-b]pyridine-3-carbonyl}-phenyl)-amide], the pIC50 on B-Raf is over 8.00; in data set [1], over 7.00; at CYP1A2, under 5.00; on CYP2D6, under 5.00.
For `CCCS(=O)(=O)Nc1ccc(F)c(C(=O)c2c[nH]c3ncc(C#CCOC)cc23)c1F` [P-2239, Propane-1-sulfonic acid {2,4-difluoro-3-[5-(3-methoxy-prop-1-ynyl)-1H-pyrrolo[2,3-b]pyridine-3-carbonyl]-phenyl}-amide], the pIC50 at B-Raf was over 7.00; in data set [1], over 6.00; at CYP1A2, under 5.00; on CYP2D6, under 5.00.
On to `C#Cc1cnc2[nH]cc(C(=O)c3c(F)ccc(NS(=O)(=O)CCC)c3F)c2c1` [P-2260, Propane-1-sulfonic acid [3-(5-ethynyl-1H-pyrrolo[2,3-b]pyridine-3-carbonyl)-2,4-difluoro-phenyl]-amide], for which the pIC50 is over 8.00 on B-Raf, over 6.00 in data set [1], under 5.00 at CYP1A2 and under 5.00 on CYP2D6.
For the compound `CCCS(=O)(=O)Nc1cccc(C(=O)c2c[nH]c3ncc(-c4cnc(OC)nc4)cc23)c1F` [P-2407, Propane-1-sulfonic acid {2-fluoro-3-[5-(2-methoxy-pyrimidin-5-yl)-1H-pyrrolo[2,3-b]pyridine-3-carbonyl]-phenyl}-amide], the pIC50 against B-Raf is over 7.00; in data set [1] it was over 6.00; on CYP1A2, under 5.00; on CYP2D6, under 5.00.
Take `CCCS(=O)(=O)Nc1cccc(C(=O)c2c[nH]c3ncc(-c4cnc(N(C)C)nc4)cc23)c1F` [P-2408, Propane-1-sulfonic acid {3-[5-(2-dimethylamino-pyrimidin-5-yl)-1H-pyrrolo[2,3-b]pyridine-3-carbonyl]-2-fluoro-phenyl}-amide]: the negative-log IC50 (pIC50) against B-Raf was over 8.00; in data set [1], over 6.00; at CYP1A2 it was under 5.00; at CYP2D6 it was under 5.00.
